Reference: the NIST ThermoML archive (doi:10.1016/j.fluid.2017.06.019)
Numbers after ± are expanded uncertainties.

Conditions: Coaxial cylinder method

CCC [propane]
thermal conductivity [W/m/K]
Conditions	368.46 K	369.12 K
3948 kPa, Gas	–	0.04135 ± 0.0026
3960 kPa, Gas	–	0.0417 ± 0.0026
4020 kPa, Gas	–	0.04343 ± 0.0027
4040 kPa, Gas	–	0.04417 ± 0.0028
4115 kPa, Gas	–	0.0486 ± 0.003
4120 kPa, Gas	–	0.04907 ± 0.0031
4125 kPa, Gas	–	0.04956 ± 0.0031
4130 kPa, Gas	–	0.05011 ± 0.0031
4135 kPa, Gas	–	0.05071 ± 0.0032
4140 kPa, Gas	–	0.05135 ± 0.0032
4145 kPa, Gas	–	0.05207 ± 0.0033
4150 kPa, Gas	–	0.0529 ± 0.0033
4154 kPa, Gas	–	0.05366 ± 0.022
4156 kPa, Gas	–	0.05402 ± 0.0034
4158 kPa, Gas	–	0.05445 ± 0.018
4160 kPa, Gas	–	0.05488 ± 0.017
4162 kPa, Gas	–	0.0554 ± 0.015
4164 kPa, Gas	–	0.05743 ± 0.014
4166 kPa, Gas	–	0.06032 ± 0.013
4166 kPa, Liquid	0.1166 ± 0.0098	–
4167 kPa, Liquid	0.1142 ± 0.0097	–
4168 kPa, Gas	–	0.0639 ± 0.012
4168 kPa, Liquid	0.112 ± 0.0095	–
4169 kPa, Liquid	0.1098 ± 0.0094	–
4170 kPa, Gas	–	0.06861 ± 0.0057
4170 kPa, Liquid	0.1079 ± 0.0092	–
4171 kPa, Liquid	0.1059 ± 0.0092	–
4172 kPa, Gas	–	0.07431 ± 0.0084
4172 kPa, Liquid	0.1041 ± 0.009	–
4173 kPa, Liquid	0.1023 ± 0.0089	–
4174 kPa, Liquid	0.1007 ± 0.0088	–
4175 kPa, Liquid	0.09915 ± 0.0087	–
4176 kPa, Liquid	0.09767 ± 0.0086	–
4177 kPa, Liquid	0.09622 ± 0.0085	–
4178 kPa, Liquid	0.09487 ± 0.0084	–
4179 kPa, Liquid	0.09359 ± 0.0083	–
4180 kPa, Gas	–	0.113 ± 0.012
4180 kPa, Liquid	0.0923 ± 0.0082	–
4181 kPa, Liquid	0.09113 ± 0.0081	–
4182 kPa, Gas	–	0.127 ± 0.015
4182 kPa, Liquid	0.09007 ± 0.0077	–
4183 kPa, Liquid	0.08899 ± 0.0075	–
4184 kPa, Gas	–	0.1426 ± 0.0095
4184 kPa, Liquid	0.08793 ± 0.0072	–
4185 kPa, Liquid	0.08689 ± 0.007	–
4186 kPa, Gas	–	0.1588 ± 0.01
4186 kPa, Liquid	0.08599 ± 0.0068	–
4187 kPa, Liquid	0.08507 ± 0.0067	–
4188 kPa, Gas	–	0.179 ± 0.011
4188 kPa, Liquid	0.08424 ± 0.0066	–
4189 kPa, Liquid	0.08337 ± 0.0065	–
4190 kPa, Gas	–	0.1956 ± 0.02
4190 kPa, Liquid	0.08257 ± 0.0064	–
4191 kPa, Liquid	0.08179 ± 0.0064	–
4192 kPa, Gas	–	0.2155 ± 0.02
4192 kPa, Liquid	0.08112 ± 0.0063	–
4193 kPa, Liquid	0.08042 ± 0.0062	–
4194 kPa, Liquid	0.07971 ± 0.0061	0.2155 ± 0.017
4195 kPa, Liquid	0.0791 ± 0.0061	–
4196 kPa, Liquid	0.0785 ± 0.0058	0.1917 ± 0.015
4197 kPa, Liquid	0.07791 ± 0.0058	–
4198 kPa, Liquid	0.07733 ± 0.0056	0.1741 ± 0.013
4199 kPa, Liquid	0.07676 ± 0.0056	–
4200 kPa, Liquid	0.07619 ± 0.0054	0.1606 ± 0.012
4201 kPa, Liquid	0.07577 ± 0.0054	–
4202 kPa, Liquid	0.07536 ± 0.0053	0.1497 ± 0.011
4203 kPa, Liquid	0.07481 ± 0.0052	–
4204 kPa, Liquid	0.07441 ± 0.0051	0.1407 ± 0.01
4205 kPa, Liquid	0.07401 ± 0.0051	–
4206 kPa, Liquid	0.07348 ± 0.005	0.1335 ± 0.011
4207 kPa, Liquid	0.07318 ± 0.005	–
4208 kPa, Liquid	0.07282 ± 0.0049	0.1259 ± 0.011
4209 kPa, Liquid	0.07244 ± 0.0049	–
4210 kPa, Liquid	0.07206 ± 0.0048	0.1185 ± 0.01
4211 kPa, Liquid	0.07181 ± 0.0048	–
4212 kPa, Liquid	0.07151 ± 0.0048	0.1121 ± 0.0097
4213 kPa, Liquid	0.07116 ± 0.0047	0.1093 ± 0.009
4214 kPa, Liquid	0.07087 ± 0.0047	–
4215 kPa, Liquid	0.07063 ± 0.0047	0.1035 ± 0.0087
4216 kPa, Liquid	0.07039 ± 0.0047	–
4217 kPa, Liquid	0.0701 ± 0.0046	–
4218 kPa, Liquid	0.06986 ± 0.0046	–
4219 kPa, Liquid	0.06962 ± 0.0046	–
4220 kPa, Liquid	0.06939 ± 0.0046	–
4221 kPa, Liquid	0.0692 ± 0.0046	–
4222 kPa, Liquid	0.06897 ± 0.0045	–
4223 kPa, Liquid	0.06874 ± 0.0045	–
4224 kPa, Liquid	0.0686 ± 0.0045	–
4225 kPa, Liquid	0.0684 ± 0.0045	–
4226 kPa, Liquid	0.06824 ± 0.0045	–
4227 kPa, Liquid	0.06804 ± 0.0044	–
4228 kPa, Liquid	0.0679 ± 0.0044	0.08399 ± 0.0073
4229 kPa, Liquid	0.06777 ± 0.0044	–
4230 kPa, Liquid	0.06761 ± 0.0044	0.08176 ± 0.0072
4231 kPa, Liquid	0.06749 ± 0.0044	–
4232 kPa, Liquid	0.06733 ± 0.0044	0.07987 ± 0.0066
4233 kPa, Liquid	0.06722 ± 0.0044	–
4234 kPa, Liquid	0.06709 ± 0.0044	0.07806 ± 0.0061
4235 kPa, Liquid	0.06698 ± 0.0044	–
4236 kPa, Liquid	0.06684 ± 0.0043	0.07633 ± 0.0057
4237 kPa, Liquid	0.06677 ± 0.0043	–
4238 kPa, Liquid	0.06652 ± 0.0043	0.07491 ± 0.0055
4239 kPa, Liquid	0.06652 ± 0.0043	–
4240 kPa, Liquid	0.06647 ± 0.0043	0.07344 ± 0.0053
4241 kPa, Liquid	0.06643 ± 0.0043	–
4242 kPa, Liquid	0.06641 ± 0.0043	–
4244 kPa, Liquid	0.06637 ± 0.0043	–
4246 kPa, Liquid	0.0663 ± 0.0043	–
4248 kPa, Liquid	0.06624 ± 0.0043	–
4250 kPa, Liquid	0.06619 ± 0.0043	–
4252 kPa, Liquid	0.06614 ± 0.0043	–
4254 kPa, Liquid	0.06611 ± 0.0043	–
4256 kPa, Liquid	0.06607 ± 0.0043	–
4258 kPa, Liquid	0.066 ± 0.0043	–
4260 kPa, Liquid	0.06598 ± 0.0043	0.06913 ± 0.0045
4262 kPa, Liquid	0.06591 ± 0.0043	–
4264 kPa, Liquid	0.06587 ± 0.0043	–
4266 kPa, Liquid	0.06583 ± 0.0043	–
4268 kPa, Liquid	0.06578 ± 0.0043	–
4270 kPa, Liquid	0.06574 ± 0.0043	–
4272 kPa, Liquid	0.06572 ± 0.0043	–
4274 kPa, Liquid	0.06568 ± 0.0043	–
4276 kPa, Liquid	0.06564 ± 0.0043	–
4278 kPa, Liquid	0.06564 ± 0.0043	–
4280 kPa, Liquid	0.06559 ± 0.0043	0.06803 ± 0.0044
4282 kPa, Liquid	0.06555 ± 0.0043	–
4284 kPa, Liquid	0.0655 ± 0.0043	–
4286 kPa, Liquid	0.0655 ± 0.0043	–
4288 kPa, Liquid	0.06543 ± 0.0043	–
4290 kPa, Liquid	0.06539 ± 0.0043	–
4292 kPa, Liquid	0.06535 ± 0.0043	–
4294 kPa, Liquid	0.06533 ± 0.0043	–
4296 kPa, Liquid	0.06529 ± 0.0042	–
4298 kPa, Liquid	0.06529 ± 0.0042	–
4300 kPa, Liquid	0.06527 ± 0.0042	0.06726 ± 0.0044
4302 kPa, Liquid	0.06525 ± 0.0042	–
4304 kPa, Liquid	0.06521 ± 0.0042	–
4306 kPa, Liquid	0.06516 ± 0.0042	–
4308 kPa, Liquid	0.06514 ± 0.0042	–
4310 kPa, Liquid	0.06514 ± 0.0042	–
4312 kPa, Liquid	0.0651 ± 0.0042	–
4314 kPa, Liquid	0.06505 ± 0.0042	–
4316 kPa, Liquid	0.06503 ± 0.0042	–
4318 kPa, Liquid	0.06501 ± 0.0042	–
4320 kPa, Liquid	0.06499 ± 0.0042	0.06665 ± 0.0043
4322 kPa, Liquid	0.06499 ± 0.0042	–
4324 kPa, Liquid	0.06497 ± 0.0042	–
4326 kPa, Liquid	0.06493 ± 0.0042	–
4328 kPa, Liquid	0.06493 ± 0.0042	–
4330 kPa, Liquid	0.06489 ± 0.0042	–
4332 kPa, Liquid	0.06487 ± 0.0042	–
4334 kPa, Liquid	0.06484 ± 0.0042	–
4336 kPa, Liquid	0.06484 ± 0.0042	–
4338 kPa, Liquid	0.06482 ± 0.0042	–
4340 kPa, Liquid	0.06482 ± 0.0042	0.06616 ± 0.0043
4345 kPa, Liquid	0.06476 ± 0.0042	–
4350 kPa, Liquid	0.06472 ± 0.0042	–
4355 kPa, Liquid	0.06468 ± 0.0042	–
4360 kPa, Liquid	0.06461 ± 0.0042	–
4365 kPa, Liquid	0.06458 ± 0.0042	–
4368 kPa, Liquid	0.06458 ± 0.0042	–
4375 kPa, Liquid	0.06454 ± 0.0042	–
4380 kPa, Liquid	0.0645 ± 0.0042	0.06546 ± 0.0043
4385 kPa, Liquid	0.06446 ± 0.0042	–
4390 kPa, Liquid	0.06443 ± 0.0042	–
4400 kPa, Liquid	0.06439 ± 0.0042	0.06519 ± 0.0042
4450 kPa, Liquid	0.06421 ± 0.0042	–
4500 kPa, Liquid	0.06413 ± 0.0042	–
4550 kPa, Liquid	0.06411 ± 0.0042	–
4600 kPa, Liquid	0.06411 ± 0.0042	–
4650 kPa, Liquid	0.06421 ± 0.0042	–
4700 kPa, Liquid	0.06427 ± 0.0042	–
4750 kPa, Liquid	0.06439 ± 0.0042	–
4800 kPa, Liquid	0.06451 ± 0.0042	–
4900 kPa, Liquid	0.06477 ± 0.0042	–
4960 kPa, Liquid	0.06496 ± 0.0042	–
4965 kPa, Liquid	0.065 ± 0.0042	–
4967 kPa, Liquid	0.065 ± 0.0042	–
5000 kPa, Liquid	0.06509 ± 0.0042	–
5100 kPa, Liquid	0.06542 ± 0.0043	–
5200 kPa, Liquid	0.06573 ± 0.0043	–
5300 kPa, Liquid	0.06605 ± 0.0043	–
5400 kPa, Liquid	0.06646 ± 0.0043	–
5500 kPa, Liquid	0.06674 ± 0.0043	–
5600 kPa, Liquid	0.06707 ± 0.0043	–
5700 kPa, Liquid	0.06732 ± 0.0044	–
5800 kPa, Liquid	0.06767 ± 0.0044	–
5900 kPa, Liquid	0.06794 ± 0.0044	–
6010 kPa, Liquid	0.06831 ± 0.0044	–
6020 kPa, Liquid	0.06831 ± 0.0044	–
6200 kPa, Liquid	0.06884 ± 0.0045	–
6210 kPa, Liquid	0.06886 ± 0.0045	–
8500 kPa, Liquid	–	0.0737 ± 0.0048
9020 kPa, Liquid	–	0.07453 ± 0.0048
10028 kPa, Liquid	–	0.07577 ± 0.0049
14772 kPa, Liquid	–	0.08097 ± 0.0052
